Data published in ChEMBL document CHEMBL5260849, “Current advances in Vibrio harveyi quorum sensing as drug discovery targets” (Eur J Med Chem, 2020).
In brackets after ≈: the same amount, converted by molar mass.

Legend:
Vibrio harveyi [1] = test: Antibiofilm activity against Vibrio harveyi BB170 assessed as inhibition of biofilm formation at 200 uM by Crystal violet biofilm assay; format: functional
Vibrio harveyi [2] = test: Inhibition of biofilm formation in Vibrio harveyi MTCC 3438 assessed as reduction in exopolysaccharides production at 250 ug/ml for 24 hrs by spectrophotometric assay; format: functional
[3] = Inhibition of quorum sensing system in Vibrio harveyi MTCC 3438 assessed fold decrease in luxP expression at 250 ug/ml by qPCR assay; conditions: dose 250.0 µg/ml
[4] = Inhibition of quorum sensing system in Vibrio harveyi MTCC 3438 assessed fold decrease in luxR expression at 250 ug/ml by qPCR assay; conditions: dose 250.0 µg/ml
[5] = Inhibition of quorum sensing system in Vibrio harveyi MTCC 3438 assessed fold decrease in luxQ expression at 250 ug/ml by qPCR assay; conditions: dose 250.0 µg/ml
[6] = Inhibition of quorum sensing system in Vibrio harveyi MTCC 3438 assessed fold decrease in luxO expression at 250 ug/ml by qPCR assay; conditions: dose 250.0 µg/ml
Vibrio harveyi [7] = test: Antibacterial activity against Vibrio harveyi MTCC 3438 assessed as reduction in cell surface hydrophobicity at 250 ug/ml for 10 mins by BATH assay; format: functional; conditions: MTCC 3438, 10 min
Vibrio harveyi [8] = test: Antibiofilm activity against Vibrio harveyi MTCC 3438 assessed as inhibition of biofilm formation at 250 ug/ml for 16 hrs by crystal violet staining based spectrophotometric assay; format: functional
Vibrio harveyi [9] = test: Antibacterial activity against Vibrio harveyi MTCC 3438 infected Litopenaeus vannamei larvae assessed as increase in survival rate at 250 ug/ml and measured upto 96 hrs; format: functional
[10] = Inhibition of quorum sensing system in Vibrio harveyi MTCC 3438 assessed fold decrease in luxS expression at 250 ug/ml by qPCR assay; conditions: dose 250.0 µg/ml
Vibrio harveyi [11] = test: Antimicrobial activity against Vibrio harveyi BB120 assessed as decrease in swimming motility at 200 ug/ml incubated for 15 hrs by agar plate reader analysis; format: functional; set-up: scale not given: the % may be the effect or the level left; conditions: dose 200 µg/ml
[12] = Inhibition of quorum-sensing system in Vibrio harveyi MM77 assessed as inhibition of QS-mediated bioluminescence at 0.02 to 200 uM incubated for 18 hrs by Luminescence assay; conditions: dose 0.02-200 µM
[13] = Inhibition of quorum-sensing system in Vibrio harveyi BB152 assessed as inhibition of QS-mediated bioluminescence at 0.02 to 200 uM incubated for 18 hrs by Luminescence assay; conditions: dose 0.02-200 µM
Vibrio harveyi [14] = test: Inhibition of biofilm formation in Vibrio harveyi MM77 assessed as inhibition of exopolysaccharides production at 200 uM incubated for 24 hrs by Fluorescence assay; format: functional
Vibrio harveyi [15] = test: Antimicrobial activity against Vibrio harveyi BB152 assessed as decrease in swimming motility at 200 ug/ml incubated for 15 hrs by agar plate reader analysis; format: functional; set-up: scale not given: the % may be the effect or the level left; conditions: dose 200 µg/ml
Vibrio harveyi [16] = test: Antimicrobial activity against Vibrio harveyi MM30 assessed as decrease in swimming motility at 200 ug/ml incubated for 15 hrs by agar plate reader analysis; format: functional; set-up: scale not given: the % may be the effect or the level left; conditions: dose 200 µg/ml
[17] = Inhibition of quorum-sensing system in Vibrio harveyi BB170 assessed as inhibition of QS-mediated bioluminescence at 0.02 to 200 uM incubated for 18 hrs by Luminescence assay; conditions: dose 0.02-200 µM
Vibrio harveyi [18] = test: Inhibition of biofilm formation in Vibrio harveyi BB152 at 200 ug/ml for 24 hrs by crystal violet assay; format: functional
Vibrio harveyi [19] = test: Antibacterial activity against Vibrio harveyi MTCC 3438 assessed as bacterial growth inhibition incubated for 24 hrs by broth microdilution assay; format: functional
Vibrio harveyi [20] = test: Antibacterial activity against Vibrio harveyi infected […] franciscana assessed as increase in survival rate at 20 uM and measured after 60 hrs by light microscopy; format: functional
[21] = Inhibition of quorum-sensing system in Vibrio harveyi assessed as inhibition of bioluminescence at 20 uM by bioluminescence assay

Molecule `CC(=O)C(=O)C(F)CO` (stereo unspecified) has an inhibition at 200 µM (Vibrio harveyi [1]) of 90%.
`Cc1cc(C(C)(C)C)c(O)c(C(C)(C)C)c1` [BUTYLATED HYDROXYTOLUENE] showed an inhibition at 250 µg/mL (Vibrio harveyi [2]) of 65%, a fold change (FC) [3] of 0.7 and a fold change (FC) [4] of 1.9. The fold change (FC) [5] was 0.5, the fold change (FC) [6] was 0.1 and the inhibition at 250 µg/mL (Vibrio harveyi [7]) was 82%. For the same molecule, the inhibition at 250 µg/mL (Vibrio harveyi [8]) was 80%, the survival at 250 µg/mL (Vibrio harveyi [9]) was 75% and the fold change (FC) [10] was 0.9.
Molecule `CCCCCCC(C)(C)c1cc(O)c2c(c1)OC(C)(C)[C@@H]1CC=C(CO)C[C@@H]21` has an Activity (Vibrio harveyi [11]) of 80%, an inhibition [12] of 95% and an inhibition [13] of 98%. The inhibition at 200 µM (Vibrio harveyi [14]) was 75%, the Activity (Vibrio harveyi [15]) was 85% and the Activity (Vibrio harveyi [16]) was 95%. The inhibition [17] was 85% and the inhibition at 200 µg/mL (Vibrio harveyi [18]) was 80%.
With `O=C(O)[C@@H]1[C@H](C(=O)O)[C@@H]2C=C[C@H]1C2` the MIC (Vibrio harveyi [19]) was 8 µg/mL (≈ 43.9 µM).
In the case of `O=S(=O)(c1ccc(Br)s1)n1cccn1`, the survival at 20 µM (Vibrio harveyi [20]) is reported as 85.5% and the inhibition [21] is reported as 100%.
